The first data set can be described thus: in vitro. The note with it: human, hela cells, % viability.
Broadly, the viability is a read-out of living cells in per cent, often relative to untreated cells. On to `COc1c(C)cc(Br)cc1C(=O)Nc1ccccc1-c1nc2ccccc2s1` [CBK267155], for which the viability at 28.5 h, 10 µM was 99.8%.

`Cc1c(C(C)NCC(O)c2ccco2)cnn1-c1ccc(C#N)cc1` (stereo not shown) [CBK306462]: the viability at 28.5 h, 10 µM worked out at 88.4%.

Regarding `CC(=O)Nc1ccc(-c2ccc(C(=O)NC3CC3)cn2)cc1` [CBK158854], the viability at 28.5 h, 10 µM amounted to 84.9%.

For the compound `O=c1ccc2cccc(OCCO)c2o1` [CBK149730], the viability at 28.5 h, 10 µM came to 105%.

Regarding `CCn1nccc1C(=O)NC1=C(C#N)CCC1` [CBK265836], the viability at 28.5 h, 10 µM came to 97.6%.

`Cc1ccc(SCCC(=O)NC(CCC(=O)O)C(=O)O)cc1` (stereo not shown) [CBK295173]: the viability at 28.5 h, 10 µM is 88%.

Regarding `Fc1ccc(-c2noc(C3CCN(CCc4ccccc4)CC3)n2)cc1` [CBK051457], the viability at 28.5 h, 10 µM is 91.3%.

On to `O=C(O)C1(NCc2ccc(F)cc2)CCCCC1` [CBK287270], for which the viability at 28.5 h, 10 µM was determined as 87.1%.

As to `Cc1cc(O)cc(C2CCCN(C(=O)CC3CCCC3)C2)n1` (stereo not shown) [CBK283422], the viability at 28.5 h, 10 µM turned out to be 107%.

As for `CCOC(=O)c1c(NC(=O)CC2Nc3ccccc3NC2=O)sc(C)c1C` (stereo not shown) [CBK263381], the viability at 28.5 h, 10 µM was determined as 94.2%.

In the case of `CCn1nc(C)c(-c2cncn2CCN(C)C2CCCC2)c1C` [CBK281569], the viability at 28.5 h, 10 µM is 109%.

Take `Cc1nccn1CC1CCCN(Cc2nc3ccccc3n2C)C1` (stereo not shown) [CBK281975]: the viability at 28.5 h, 10 µM is 110%.

Regarding `CCC(NC(=O)c1ccc(C#CC2(O)CCCCC2)cc1)C(=O)O` (stereo not shown) [CBK287160], the viability at 28.5 h, 10 µM was 96.8%.

Take `OCCN(CCO)c1cncc(-c2cccc3ccccc23)n1` [CBK065812]: the viability at 28.5 h, 10 µM came out at 84.5%.

As to `O=C1OCCN1CCN1CCCN(Cc2ccc(F)cc2)CC1` [CBK304023], the viability at 28.5 h, 10 µM turned out to be 103%.

For `O=C(NCCn1c(=O)oc2ccccc21)C(c1cccs1)c1cccs1` [CBK286198], the viability at 28.5 h, 10 µM was 99.8%.

Regarding `O=C(NCCCO)c1c(O)c2ccccc2[nH]c1=O` [CBK018215], the viability at 28.5 h, 10 µM came to 71.7%.

For `CC(C)(C)OC(=O)N1CCN(c2ccc(N)c3ccccc23)CC1` [CBK003162], the viability at 28.5 h, 10 µM turned out to be 88.3%.

As for `OC1CCC(Nc2cncc(-c3ccc4ccccc4c3)n2)CC1` (stereo not shown) [CBK065463], the viability at 28.5 h, 10 µM turned out to be 91.7%.

For the compound `CCNC(=O)C1(Cc2ccccc2-c2ccccc2)CCN(C(=O)c2cccc(F)c2)CC1` [CBK285689], the viability at 28.5 h, 10 µM amounted to 88.7%.

Consider `Cc1cc(C(C)(C)C)cc(C)c1COC(=O)c1ccncc1` [CBK296995], for which the viability at 28.5 h, 10 µM turned out to be 112%.

Regarding `O=c1c(N2CCNCC2)nccn1CCc1cccs1` [CBK050382T], the viability at 28.5 h, 10 µM came out at 89.3%.

As for `CCN(CC)C(=O)Cn1c(=O)n(Cc2ccco2)c2ncccc21` [CBK284016], the viability at 28.5 h, 10 µM turned out to be 109%.

For `CN(C)CCCNC(=O)c1cccc(S(=O)(=O)N2CCCCC2)c1` [CBK304314C], the viability at 28.5 h, 10 µM stood at 91.6%.

Regarding `Cc1nn2c(c1-c1ccno1)CCCCC2` [CBK007505], the viability at 28.5 h, 10 µM stood at 97.6%.

On to `COc1ccc(C(=O)N2CC[C@H]3NC(=O)N(Cc4ccccc4)C(=O)[C@H]32)cc1` [CBK289293], for which the viability at 28.5 h, 10 µM was 94.1%.

Regarding `Cc1cc2c3c(c1)c1c(n3CCC2)CCNCC1` [CBK018380C], the viability at 28.5 h, 10 µM was determined as 96.9%.

For `Cc1cccc(-c2ccc(CC3(C(N)=O)CCN(C(=O)c4ccccc4)CC3)cc2)c1` [CBK285778], the viability at 28.5 h, 10 µM turned out to be 93.9%.

Consider `O=C(CNS(=O)(=O)c1cc(F)c(Br)cc1F)N1CCOCC1` [CBK042216], for which the viability at 28.5 h, 10 µM was 107%.

With `O=C(N/N=C/c1ccc(N2N=C(c3ccc(Cl)cc3)CC2c2ccc(Cl)cc2)cc1)c1cccnc1` (stereo not shown) [CBK262494], the viability at 28.5 h, 10 µM is 103%.

As to `CCNC(=O)C1CCCN(Cc2ncc(C)c(OC)c2C)C1` (stereo not shown) [CBK305081], the viability at 28.5 h, 10 µM was 78%.

As for `Cc1nnc(C(C)Sc2nnc(-c3ccc(F)cc3)n2CC2CCCO2)o1` (stereo not shown) [CBK298298], the viability at 28.5 h, 10 µM was determined as 94.4%.

For the compound `O=C(CO)N1CC2(CCN(Cc3cccc4cccnc34)CC2)c2ccccc21` [CBK137004], the viability at 28.5 h, 10 µM stood at 104%.

With `Cc1cc(C(=O)Nc2cc(F)c(N3CCCC3)c(F)c2)c(C)n1C1CC1` [CBK306226], the viability at 28.5 h, 10 µM is 102%.

On to `CCCN(C)Cc1ccc(-c2cn(CC(=O)NCc3ccc(OCC(F)F)cc3)nn2)cc1` [CBK166365], for which the viability at 28.5 h, 10 µM amounted to 106%.

Take `O=C(NCc1ccccc1)c1ccnc2ccccc12` [CBK200191]: the viability at 28.5 h, 10 µM was 83.7%.

Turning to `CCn1c(=O)c(C=Cc2cc(OC)c(O)c(OC)c2)nc2cc(C(=O)O)ccc21` [CBK296701], the viability at 28.5 h, 10 µM came out at 85.1%.

Consider `CCCn1c(SCc2csc(CC(=O)Nc3ccccc3C)n2)n[nH]c1=O` [CBK296969], for which the viability at 28.5 h, 10 µM stood at 91.1%.

Take `CC(C)C(=O)N(C)c1nnc(-c2cccnc2)s1` [CBK007554]: the viability at 28.5 h, 10 µM turned out to be 114%.

For `CC(=O)c1ccc(NC(=O)NC[C@H]2C[C@@H]3CC[N@]2C[C@@H]3CN2CCN(C)CC2)cc1` [CBK288768], the viability at 28.5 h, 10 µM was determined as 116%.

In the case of `CCOc1ccc(C(=O)N2CCN(S(=O)(=O)c3ccc(C)cc3C)CC2)cn1` [CBK298313], the viability at 28.5 h, 10 µM was 93.3%.

Take `COc1ccc(OC)c(NC(=O)CNC(=O)c2ccccc2F)c1` [CBK267846]: the viability at 28.5 h, 10 µM stood at 91.5%.

Take `Cc1cc2ccccc2n2c(=O)n(CC(=O)NC3CCCC3)nc12` [CBK283884]: the viability at 28.5 h, 10 µM turned out to be 79.7%.

For `Cc1ccc(S(=O)(=O)Nc2ccc(-c3cn4cccnc4n3)cc2)cc1[N+](=O)[O-]` [CBK268936], the viability at 28.5 h, 10 µM turned out to be 60.5%.

For `CCc1c(C)nc2nnc(NC(=O)C(F)(F)F)n2c1O` [CBK020762], the viability at 28.5 h, 10 µM came to 102%.

Take `C[C@H]1CN2C[C@H](O)CC2CN1Cc1cn(C)c2ccc(F)cc12` (stereo partly shown) [CBK285428]: the viability at 28.5 h, 10 µM was 97.6%.

Turning to `COc1ccc(C(C)C)cc1-c1nc(NS(C)(=O)=O)cc2ccccc12` [CBK073779], the viability at 28.5 h, 10 µM was 94.2%.

As for `COCC(=O)NCC1Cc2cc(F)cc(-c3ccc(C(C)=O)s3)c2O1` (stereo not shown) [CBK307310], the viability at 28.5 h, 10 µM came out at 98.4%.

On to `CN(C)c1ccc(CC(=O)Nc2cnc(-c3ccc(F)c(Cl)c3)c(-c3ccco3)n2)cc1` [CBK037581], for which the viability at 28.5 h, 10 µM was found to be 97.9%.

For `COC(C)CN(C)Cc1c(C)[nH]c2ccc(F)cc12` (stereo not shown) [CBK282035], the viability at 28.5 h, 10 µM came out at 84.5%.

Consider `CCN1CCN(c2c(Cl)cccc2NC(=O)CSc2ccc(Cl)cc2)CC1` [CBK267606], for which the viability at 28.5 h, 10 µM is 90.7%.

In the case of `Clc1ccc(Nc2nnc(-c3[nH]ncc3NCc3ccncc3)o2)cc1` [CBK288588], the viability at 28.5 h, 10 µM came to 99%.

As to `CCc1c(C)nc2c(NC(C)=O)cccc2c1SCCC(=O)O` [CBK159594T], the viability at 28.5 h, 10 µM turned out to be 106%.

Consider `CCOC(=O)c1cnc(SC)nc1NCCc1c[nH]c2cc(F)ccc12` [CBK092315], for which the viability at 28.5 h, 10 µM was 96%.

For `Cc1oc(-c2ccccc2)nc1CCOc1ccc(NC(=O)c2ccc(Cl)cc2Cl)c(C(=O)O)c1` [CBK000168D], the viability at 28.5 h, 10 µM came out at 88.6%.

For `Cc1cc(-c2cn3cc(C(=O)NCCO)nc3c(=O)n2C)c(C)o1` [CBK307288], the viability at 28.5 h, 10 µM stood at 89.4%.

`Cc1ccc(-n2c(C)cc(/C=N/NC(=O)c3ccc(CN4CCOCC4)cc3)c2C)cc1` [CBK263324]: the viability at 28.5 h, 10 µM turned out to be 86.8%.

As for `CNC(=O)CSc1nnc2[nH]c(=O)c(C)c(C)n12` [CBK287687], the viability at 28.5 h, 10 µM was found to be 108%.

Consider `O=C(O)/C=C/C(=O)N(Cc1ccccn1)Cc1ccco1` [CBK286660], for which the viability at 28.5 h, 10 µM was 84.2%.

Take `COC(=O)CCc1ccc(S(=O)(=O)N2CCN(Cc3cccc4cccnc34)CC2)cc1` [CBK062969]: the viability at 28.5 h, 10 µM came to 87.8%.

Consider `O=C(Cc1c[nH]cn1)N1CCN(c2ncccn2)CC1` [CBK144527], for which the viability at 28.5 h, 10 µM came out at 105%.

On to `COc1ccc(CNc2cncc(-c3cncc(OC)c3)n2)cc1` [CBK065388], for which the viability at 28.5 h, 10 µM was 98.5%.

`O=C(NCC1CCCCC1)N1CCN(c2cc(C(F)(F)F)ccn2)CC1` [CBK162323]: the viability at 28.5 h, 10 µM came out at 103%.

Consider `Cc1cnc2[nH]c(C(C)C)c(CN(C)C)c2c1` [CBK284758], for which the viability at 28.5 h, 10 µM was determined as 100%.

`CN(C(=O)CCC(=O)O)c1ccccc1C(=O)O` [CBK261429]: the viability at 28.5 h, 10 µM was 104%.

Consider `Cc1ccc2ccccc2c1Cn1cc(-c2ccc([N+](=O)[O-])cc2)nc1SCC(=O)NC(C)(C)C` [CBK264493], for which the viability at 28.5 h, 10 µM worked out at 115%.

As to `COc1ccccc1OCC(=O)NNC(=O)c1cnccn1` [CBK262617], the viability at 28.5 h, 10 µM worked out at 109%.

For the compound `O=C(CSc1nc(Nc2ccccc2)nc(N2CCOCC2)n1)Nc1ccc2c(c1)OCO2` [CBK268320], the viability at 28.5 h, 10 µM was determined as 96.5%.

For the compound `CCOc1ccc(-n2c(SCc3ccc(Br)cc3)nnc2-c2ccncc2)cc1` [CBK266017], the viability at 28.5 h, 10 µM was found to be 103%.

In the case of `COc1ccc(Cn2nnnc2C(CC(C)C)N2CCC(C(N)=O)CC2)cc1` (stereo not shown) [CBK084783], the viability at 28.5 h, 10 µM is 90%.

For the compound `CCn1nccc1C(=O)Nc1nc2ccccc2n1CCN1CCCCC1` [CBK265737], the viability at 28.5 h, 10 µM was determined as 89.1%.

For `CC(CNC(=O)c1ccc([N+](=O)[O-])o1)N1CCc2sccc2C1` (stereo not shown) [CBK297749], the viability at 28.5 h, 10 µM worked out at 87.9%.

Regarding `CC1CCN(Cc2ccc(-c3cn(CC(=O)NCc4ccc(Br)cc4)cn3)cc2)CC1` [CBK165969], the viability at 28.5 h, 10 µM is 104%.

On to `CC(=O)N1CCc2ccc(NC(=O)c3cc(-c4ccc(C(=O)N5CCOCC5)cc4)cnc3N)cc21` [CBK160205], for which the viability at 28.5 h, 10 µM worked out at 89.9%.

Take `Nc1ncc(-c2ccc(C(=O)N3CCOCC3)cc2)nc1C(=O)NC1CCCC1` [CBK149155]: the viability at 28.5 h, 10 µM was found to be 89.3%.

`Cc1cccc(C)c1NC(=O)CN1CCC(Oc2cncc(OCCN3CCOCC3)n2)C1` (stereo not shown) [CBK084489]: the viability at 28.5 h, 10 µM is 95.5%.

On to `CCNC(=O)Nc1ccccc1C(=O)NC1CCCCC1` [CBK175266], for which the viability at 28.5 h, 10 µM came to 89.6%.

Turning to `COc1cc(CN2CCC3(CC2)CN(S(C)(=O)=O)c2ccccc23)cc(OC)c1OC` [CBK126669], the viability at 28.5 h, 10 µM is 100%.

The data set is the same for the next values; noted with them: human, hela cells, % viability, bulk resorufin, single well.
With `O=C(Nc1ccc(OC(F)(F)F)cc1)N1CCC2(CC1)OCCO2` [CBK045235], the viability at 28.5 h, 10 µM was determined as 91.7%.

For the origin of these results see paper PMC12040169 (PLOS Biology, 2025).
